For data set [1] the following is noted: octanol/water, pH 7.4.
Data set [2] is described as follows: Dissociation constant, pKa of the compound by UV-metric method. The class given is physicochemical.
Data set [3] is described as follows: physchem. Particulars: 1-octanol/PBS, pH 7.4.
Data set [4] in a line: in vitro. Particulars: dog, MDCK-MDR1.
The nature of data set [5]: in vivo. Particulars: FVB hSCN9a Tg, mouse, po, 30 mg/kg.
Data set [6] in a line: in vivo. Particulars: brain/plasma.
Data set [7] is described as follows: in vivo. Particulars: beagle, dog, iv, 0.5 mg/kg.
Data set [8] in a line: in vitro. Particulars: dog, MDCK-MDR1. The source holds these as a separate data set.
Data set [9] in a line: in vivo. Particulars: FVB hSCN9a Tg, mouse, plasma, po, 30 mg/kg.
A short description of data set [10]: in vivo. Particulars: Sprague-Dawley, rat, iv, 1 mg/kg.
Data set [11] can be described thus: physchem. Particulars: PBS, pH 7.4.
The nature of data set [12]: in vivo. Particulars: CF1, mouse, iv, 0.5 mg/kg.

In brackets after ≈: the same amount, converted by molar mass. A value given as a limit tells only on which side of the number the result lay.

As for `CS(=O)(=O)NC(=O)c1cc(Cl)c(OCC23CC4CC(CC(C4)C2)C3)cc1F`, the logD (as a rule, lipophilicity at a set pH, counting ionised and neutral species) in data set [1] was determined as 2.4. Moreover, the pKa (as a rule, the pH at which an ionisable group is half protonated) in data set [2] was determined as 3.8.

Turning to `CS(=O)(=O)Nc1noc2cc(COc3ccc(Cl)c(Cl)c3)c(Cl)cc12`, the logD in “physchem [3]” amounted to 2.5. The same measure, in the same setting: under `CS(=O)(=O)Nc1noc2cc(OCc3ccc(Cl)c(Cl)c3)c(Cl)cc12` stands 1.8; under `CS(=O)(=O)Nc1noc2cc(COc3ccc(Cl)c(Cl)c3)c(C3CC3)cc12`, 2.4; under `CC(C)c1cn2c(NS(C)(=O)=O)nnc2cc1OCC12CC3CC(CC(C3)C1)C2`, 2.9.

Regarding `CS(=O)(=O)Nc1nnc2cc(OCC34CC5CC(CC(C5)C3)C4)c(C3CC3)cn12`, in “in vitro [4]”, the basolateral-to-apical permeability (Papp B→A) (commonly the apparent permeability from the basolateral to the apical side of a cell layer) at 10 µM was 3.2 ×10⁻⁶ cm/s. Also, the time of peak concentration (Tmax) (as a rule, the time from dosing to the highest level) at 3 h in the data set “in vivo [5]” worked out at 2 h. In addition, the partition ratio (Kp) (commonly tissue or fluid exposure divided by exposure in the circulation) in “in vivo [6]” was more than 0.17. Besides, the Vd (commonly a proportionality between amount in the body and measured concentration, not a real space) in the data set “in vivo [7]” worked out at 0.4 L/kg; in the data set “in vivo [10]” it was 0.6 L/kg. For the same compound, in the data set “in vitro [8]”, the Papp A→B (commonly the apparent permeability from the apical to the basolateral side of a cell layer) at 10 µM came to 3.2 ×10⁻⁶ cm/s. In addition, the logD in “physchem [3]” came out at 3.5. Besides, the concentration at 3 h in “in vivo [9]” was 46.2 µM. In addition, the kinetic solubility – broadly, the concentration staying in solution when a stock, usually in DMSO, is diluted into the medium – at 24 h, 200 µM in “physchem [11]” worked out at 32 µM (≈ 13.3 µg/mL). With `CS(=O)(=O)Nc1nnc2cc(OCC34CC5CC(CC(C5)C3)C4)c(Br)cn12`, in “physchem [3]”, the log distribution coefficient (logD) came out at 2.8. Still for that read-out and setting: the same measure for `O=S(=O)(Nc1nnc2cc(OCC34CC5CC(CC(C5)C3)C4)c(C3CC3)cn12)C(F)F`: 3.1. With `CS(=O)(=O)Nc1nnc2cc(OCC34CC5CC(CC(C5)C3)C4)c(Cl)cn12`, in the data set “physchem [3]”, the logD came out at 2.7. This compound gave a pKa in [2] of 5.6. For the compound `CS(=O)(=O)Nc1nnc2cc(COc3cc(Cl)cc(Cl)c3)c(C3CC3)cn12`, in the data set “in vitro [4]”, the apparent permeability from basolateral to apical (Papp B→A) at 10 µM was 15 ×10⁻⁶ cm/s. Further, the Vd in the data set “in vivo [12]” amounted to 0.2 L/kg; in “in vivo [10]”, 0.6 L/kg. Further, the partition ratio (Kp) in “in vivo [6]” is less than 0.004. Further, the Papp A→B at 10 µM in the data set “in vitro [8]” stood at 4 ×10⁻⁶ cm/s. This compound also returned a log distribution coefficient (logD) in the data set “physchem [3]” of 1.9. In the data set “in vivo [9]”, this compound had a concentration at 3 h of 18.8 µM. This compound showed a kinetic solubility at 24 h, 200 µM in the data set “physchem [11]” of 17 µM (≈ 7.26 µg/mL). In turn, `O=S(=O)(Nc1nnc2cc(OCC34CC5CC(CC(C5)C3)C4)c(C3CC3)cn12)C1CCC1` yielded a logD in the data set “physchem [3]” of 4.7.

On to `CCc1cn2c(NS(C)(=O)=O)nnc2cc1OCC12CC3CC(CC(C3)C1)C2`, for which, in “physchem [3]”, the logD came to 3.1.

In turn, `CS(=O)(=O)Nc1nnc2cc(OCC34CC5CC(CC(C5)C3)C4)c(C3CCC3)cn12` displayed a logD in “physchem [3]” of 3.9. On the same count and under the same terms, the same measure for `CS(=O)(=O)Nc1nnc2cc(OCC3C4CC5CC(C4)CC3C5)c(C3CC3)cn12` (configuration not stated): 2.3; for `CS(=O)(=O)Nc1nnc2cc(OCC34CC5CC(CC(C5)C3)C4)ccn12`: 2.2; for `CNS(=O)(=O)Nc1nnc2cc(OCCC34CC5CC(CC(C5)C3)C4)c(C3CC3)cn12`: 3.7. As for `CS(=O)(=O)Nc1noc2cc(OCC34CC5CC(CC(C5)C3)C4)c(Cl)cc12`, the log distribution coefficient (logD) in “physchem [3]” worked out at 3.5. In addition, the pKa in data set [2] is 4.7. Turning to `CS(=O)(=O)Nc1nnc2cc(COc3ccc(Cl)c(Cl)c3)c(C3CC3)cn12`, in “physchem [3]”, the logD is 1.5. In “physchem [3]”, `CNS(=O)(=O)Nc1nnc2cc(OCC34CC5CC(CC(C5)C3)C4)c(C3CC3)cn12` returned a log distribution coefficient (logD) of 3.2.

The values are drawn from ChEMBL document CHEMBL4251746, “Design of Conformationally Constrained Acyl Sulfonamide Isosteres: Identification of N-([1,2,4]Triazolo[4,3- a]pyridin-3-yl)methane-sulfonamides as Potent and Selective hNaV1.7 Inhibitors for the Treatment of Pain” (J Med Chem, 2018).
